Patent US12153049B2, “BCR-ABL variants” (Quest Diagnostics Investments LLC, priority 2008, dated 2024)
Values joined by “and” are separate entries in the source; they are usually repeats but may differ in a detail not shown here. Equal entries are not always repeated. “Also recorded” adds a separate entry of the source. Structures can show the parent of a compound that is named as a salt. Where two headings read alike, the source gives them in different places.

Experiments:
[1] = test system: K562 cells transfected with pMIG/35 INS bcr-abl; assay: MTT cell proliferation/viability assay, K562 cells transfected with pMIG/35 INS bcr-abl; format: cell-based, human; settings: for IC50: read-out: IC50 (median-effect dose, MTT)
Experimental: (§1) K562 cells were cotransfected with an increasing amount (0 to 100 ng) of plasmid pMIG/35 INS BCR-ABL and 100 ng of either pMIG/BCR-ABL1p210 or empty plasmid (pMIG). […] The effect of the drugs on cell proliferation was measured by MTT assay (FIG. 18A, right panel; mean±S.D; n=3). Dose response to cell death curves of K562 cells exposed to drugs were generated with the CalcuSyn® software package (Biosoft, Ferguson, MO) for each of at least three experiments.

[2] = test system: K562 CML cells (empty vector); assay: MTT cell proliferation assay, K562 cells with empty vector; format: cell-based, human; settings: for IC50: Empty vector pCMV/GFP, drug 48 h, read-out: IC50 (median-effect dose, MTT)
Experimental: The effect of the drugs on cell proliferation was measured by MTT assay (FIG. 18A, right panel; mean±S.D; n=3). Dose response to cell death curves of K562 cells exposed to drugs were generated with the CalcuSyn® software package (Biosoft, Ferguson, MO) for each of at least three experiments.

[3] = test system: caspase-3 activation in K562 cells; assay: Caspase-3 activation (apoptosis) assay in transfected K562 cells; format: cell-based, human; settings: for Effect of 35 INS BCR-ABL gene transfer on drug-induced caspase-3 activation: K562 cells transfected with 35 INS BCR-ABL
Experimental: To perform caspase assays, K562 cells were transiently transfected in 6-well dishes using the above procedure. […] Typically, 15-25 μg of lysates were analyzed for protease activity by continuously measuring the release of fluorogenic substrate Ac-DEVD-aminofluoromethylcoumarin product from EMD (San Diego, CA) at 37° C., as described (Capdeville et al., Nat. Rev. Drug Discov. 2002, 1:493).
Induction of apoptosis measured by caspase-3 activation (mean [SD]; n=3) in K562 cells transfected with the different plasmids as described above and shown in FIG. 18B.
(§2) Lysates were prepared at the times indicated and examined by caspase-3 assay (left) or by immunoblots using specific antibodies for BIM and actin (right) (see FIGS. 22A-22B).

[4] = test system: tyrosine kinase (TK) activity in K562 cells transfected with BCR-ABL1p210; assay: Universal Tyrosine Kinase Assay on cell extract, K562 BCR-ABL1p210; format: cell-based, human; settings: relative to no-drug control, imatinib 1.2 μM, nilotinib 5 nM, dasatinib 5 nM, MK 0457 2 μM, homoharringtonine X μM
Experimental: (§3) K562 cells were cotransfected with increasing amounts of plasmid encoding pMIG/35 INS bcr-abl and either 100 ng of pMIG/BCR-ABL1p210 or the same amount of control vector (empty vector plasmid). […] Rabbit polyclonal IgG anti-Lyn, anti-Aurora A, and anti-Aurora B were obtained from Santa Cruz Biotechnology, (Santa Cruz, CA); rabbit polyclonal IgG anti-p-Src, anti-p-StatS, and anti-p-Crkl were obtained from Cell Signaling (Danvers, MA). Goat anti-rabbit PE (Santa Cruz Biotechnology) was used as the secondary antibody. LYN, p-CRKL, p-SRC, p-STATS, and Aurora A and B status were monitored. All experiments were repeated at least three times. Asterisk indicates p<0.05 relative to Control (empty vector).
(§4) Tyrosine kinase assay was performed using the Universal Tyrosine Kinase Assay Kit (GenWay Biotech, San Diego, CA) according to the manufacturer's instruction. The universal protein tyrosine kinase substrate peptide, Poly (Glu-Tyr) (4:1, 20-50 kDa) was pre-coated onto 96-well microtiter plates. Serial dilutions of prepared cell extract and 5-point standards (with known tyrosine kinase activities) were added to the plate in triplicates along with an ATP-containing kinase buffer. After incubation at 37° C. for 30 min to allow phosphorylation of tyrosine residues, the sample solution was removed and the wells washed with Washing buffer (PBS with 0.05% Tween-20) and blocked with Blocking solution. Anti-phosphotyrosine (PY20)-horse radish peroxidase (HRP) conjugate was then added to the plate. After incubation at 37° C. for 30 min, the PY20-HRP solution was replaced by HRP substrate solution (TMBZ). For colorimetric determination of PTK activity, the sample's specific absorbance at 450 nm was calculated from the standard curve.

[5] = test system: tyrosine kinase (TK) activity in K562 cells transfected with BCR-ABL1 35INS; assay: Universal Tyrosine Kinase Assay on cell extract, K562 BCR-ABL1 35INS; format: cell-based, human
Experimental: as §3, with “times.” for “times. Asterisk indicates p<0.05 relative to Control (empty vector).”
as §4

[6] = test system: K562 cells transfected with pMIG/BCR-ABL1p210; assay: MTT cell proliferation assay, K562 cells transfected with pMIG/BCR-ABL1p210; format: cell-based, human; settings: for IC50: pMIG/BCR-ABL1p210 0.1 μg DNA, K562 cells, drug 48 h, read-out: IC50 (median-effect dose, MTT); for Resistance to the drug caused by wild-type BCR-ABL1p210 expression: K562 cells transfected with BCR-ABL1p210
Experimental: as §1

[7] = test system: tyrosine kinase (TK) activity in K562 cells (empty vector); assay: Universal Tyrosine Kinase Assay on cell extract, K562 empty vector; format: cell-based, human; settings: relative to no-drug control, imatinib 1.2 μM, nilotinib 5 nM, dasatinib 5 nM, MK 0457 2 μM, homoharringtonine X μM
Experimental: as §3, §4

[8] = test system: phosphorylation of CrkL, LYN, pSRC, pSTAT5, Aurora A and B in K562 cells; assay: Phosphorylation of BCR-ABL substrates, K562 cells; format: cell-based, human
Experimental: (§5) The effect of a compound on the kinase activity of the BCR-ABL is assessed by monitoring tyrosine phosphorylation profile of the cellular proteins. […] Genetically modified cells comprising recombinant bcr-abl or variant so of bcr-abl including the splice variant are grown in presence of various amounts of a compound for treating CML patients. […] Amount of phosphorylated CrkL protein can be measured by using detectably labeled anti-phospho CrkL antibody. In one embodiment, the detectable label is phycoerythrin. The signal can be detected by Flow cytometer. Alternatively, the signal can be detected by Fluorescent Microtiter plate reader.
as §3, with “times.” for “times. Asterisk indicates p<0.05 relative to Control (empty vector).”

CML patients = settings: cited from earlier work
[9] = test system: BIM expression in K562 cells; assay: BIM induction by immunoblot in K562 cells; format: cell-based, human; settings: 24 to 48 hours' incubation
Experimental: as §2

[10] = test system: phosphorylation of CrkL and other substrates in K562 cells transfected with pMIG/35 INS bcr-abl; assay: Phosphorylation of BCR-ABL substrates, K562 cells transfected with pMIG/35 INS bcr-abl; format: cell-based, human
Experimental: as §5
as §3, with “times.” for “times. Asterisk indicates p<0.05 relative to Control (empty vector).”

[11] = BCR-ABL1 35INS, relative to no-drug control, imatinib 1.2 μM, nilotinib 5 nM, dasatinib 5 nM, MK 0457 2 μM, homoharringtonine X μM

| SMILES | Cell death in K562 cells [2] | IC50 ([2]; Homo sapiens) | Effect of 35 INS BCR-ABL gene transfer on drug-induced caspase-3 activation [3] | Relative tyrosine kinase activity [4] | IC50 ([6]; Homo sapiens) | Resistance to the drug caused by wild-type BCR-ABL1p210 expression [6] | Relative tyrosine kinase activity [7] | Effect on Aurora A and B [8] | Relative tyrosine kinase activity [5, 11] | further results |
| --- | --- | --- | --- | --- | --- | --- | --- | --- | --- | --- |
| Cc1cn(-c2cc(NC(=O)c3ccc(C)c(Nc4nccc(-c5cccnc5)n4)c3)cc(C(F)(F)F)c2)cn1 [Nilotinib, nilotinib] | induced cell death | 42 nM | induced resistance | 33.1% | 42 nM | did not induce resistance | 23.4% | no effect |  | Increase of IC50 with pMIG/35 INS bcr-abl vector [1]: 1.7 fold; IC50 ([1]; Homo sapiens, K562, 48 h): 52 nM; IC50 [1]: 54 nM and 71 nM; Relative potency in induction of apoptosis (caspase-3 activation) ([3]; K562 cells): more potent than imatinib; Relative tyrosine kinase activity [5]: 76.2%; Phosphorylation of CrkL, LYN, pSRC and pSTAT5 [8]: inhibited phosphorylation |
| COC(=O)C[C@](O)(CCCC(C)(C)O)C(=O)O[C@@H]1C(OC)=C[C@]23CCCN2CCc2cc4c(cc2[C@H]13)OCO4 [HHT, homoharringtonine] |  | 63 nM |  | 79.2% | 54 nM |  | 59.8% |  | 75.4% | IC50 ([1]; Homo sapiens, K562, 48 h, pMIG/35 INS bcr-abl 0.01 μg DNA, K562 cells, drug 48 h): 61 nM; IC50 ([1]; Homo sapiens, K562, 48 h, pMIG/35 INS bcr-abl 0.05 μg DNA, K562 cells, drug 48 h): 49 nM; IC50 ([1]; Homo sapiens, K562, 48 h, pMIG/35 INS bcr-abl 0.1 μg DNA, K562 cells, drug 48 h): 54 nM |
| Cc1ccc(NC(=O)c2ccc(CN3CCN(C)CC3)cc2)cc1Nc1nccc(-c2cccnc2)n1 [Imatinib, imatinib mesylate] | induced cell death |  | induced resistance; also recorded: increase was inhibited |  |  | did not induce resistance |  |  |  | Caspase-3 activation over time ([3]; CML K562 cells, continuous treatment): increased with time; Primary resistance rate (failure to achieve any hematologic response) (CML patients; accelerated-phase CML): 9%; Secondary resistance rate (hematologic recurrence) (CML patients; accelerated-phase CML): 32%; Primary resistance rate (failure to achieve any hematologic response) (CML patients; blast-phase CML): 51%; Secondary resistance rate (hematologic recurrence) (CML patients; blast-phase CML): 41%; Primary resistance rate (failure to achieve any hematologic response) (CML patients; chronic-phase CML): 3%; Secondary resistance rate (hematologic recurrence) (CML patients; chronic-phase CML): 22%; BIM expression / induction [9]: expressed at increased levels |
| Cc1cc(Nc2cc(N3CCN(C)CC3)nc(Sc3ccc(NC(=O)C4CC4)cc3)n2)n[nH]1 [MK-0457] |  |  | did not affect the rate of caspase-3 activation | 96.7% |  | did not induce resistance | 87.3% |  | 100% | Resistance to the drug caused by 35 INS BCR-ABL expression (MTT) ([1]; K562 cells transfected with pMIG/35 INS bcr-abl): did not induce resistance; IC50 ([1]; pMIG/35 INS bcr-abl 0.01 μg DNA, K562 cells, drug 48 h): 2000 nM; IC50 ([1]; pMIG/35 INS bcr-abl 0.05 μg DNA, K562 cells, drug 48 h): 1980 nM; IC50 ([1]; pMIG/35 INS bcr-abl 0.1 μg DNA, K562 cells, drug 48 h): 1540 nM; Effect of 35 INS BCR-ABL expression on inhibition of kinases/phosphorylation by the drug [10]: no effect on inhibition; IC50 [2]: 1810 nM; IC50 [6]: 1790 nM |
| Cc1nc(Nc2ncc(C(=O)Nc3c(C)cccc3Cl)s2)cc(N2CCN(CCO)CC2)n1 [Dasatinib, dasatinib] |  | 12 nM |  | 20.6% | 11 nM |  | 15.6% | no effect |  |  |
